Experimental data published in ChEMBL document CHEMBL4033727, “Design, synthesis, in silico and in vitro evaluation of thiophene derivatives: A potent tyrosine phosphatase 1B inhibitor and anticancer activity” (Bioorg Med Chem Lett, 2017).

Columns and labels:
[1] = tested on: MCF7; assay: Anticancer activity against human MCF7 cells incubated for 24 hrs by MTT assay; format: functional, cell-based; conditions: MCF7, 24 h
[2] = tested on: K562; assay: Anticancer activity against human K562 cells incubated for 24 hrs by MTT assay; format: functional, cell-based; conditions: K562, 24 h
[3] = molecular target: T1, Tyrosine-protein phosphatase non-receptor type 1 (Homo sapiens, UniProt P18031); assay: Inhibition of recombinant PTP1B (unknown origin) using pNPP substrate
T1 sequence (P18031 whole entry): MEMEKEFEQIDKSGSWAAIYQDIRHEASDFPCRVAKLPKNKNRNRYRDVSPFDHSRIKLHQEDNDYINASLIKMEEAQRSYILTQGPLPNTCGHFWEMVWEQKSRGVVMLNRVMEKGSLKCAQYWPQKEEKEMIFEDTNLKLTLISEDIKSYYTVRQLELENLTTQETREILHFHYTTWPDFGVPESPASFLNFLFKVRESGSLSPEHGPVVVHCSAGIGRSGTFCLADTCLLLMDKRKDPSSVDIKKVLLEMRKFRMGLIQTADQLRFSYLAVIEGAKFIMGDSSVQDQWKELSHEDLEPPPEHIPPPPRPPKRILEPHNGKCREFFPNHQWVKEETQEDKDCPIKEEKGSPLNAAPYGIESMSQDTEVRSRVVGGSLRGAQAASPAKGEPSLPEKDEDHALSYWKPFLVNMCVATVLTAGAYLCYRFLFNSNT

[4] = tested on: MDA-MB-231; assay: Anticancer activity against human MDA-MB-231 cells incubated for 24 hrs by MTT assay; format: functional, cell-based; conditions: MDA-MB-231, 24 h
[5] = tested on: HepG2; assay: Anticancer activity against human HepG2 cells incubated for 24 hrs by MTT assay; format: functional, cell-based; conditions: HepG2, 24 h
[6] = tested on: HeLa; assay: Anticancer activity against human HeLa cells incubated for 24 hrs by MTT assay; format: functional, cell-based
[7] = tested on: HEK293; assay: Cytotoxicity activity against human HEK293 cells incubated for 24 hrs by MTT assay; format: cell-based; conditions: HEK293, 24 h
[8] = Stability in various solvents up to 96 hrs at different temperatures; format: physicochemical

Row | SMILES | IC50 [1] [µM] | IC50 [2] [µM] | IC50 [3] [µM] | IC50 [4] [µM] | IC50 [5] [µM] | IC50 [6] [µM] | Stability [8] | IC50 [7] [µM]
1 | COC(=O)c1scc(-c2ccc(NC(=O)c3cc(I)ccc3F)cc2)c1OC | 22.5 | 35.6 | 20.6 | 16.5 | – | – | – | 45.2
2 | COC(=O)c1scc(-c2ccc(NC(=O)c3cccs3)cc2)c1OC | 18.6 | – | 24.3 | > 50 | 15.3 | > 50 | – | > 50
3 | COC(=O)c1scc(-c2ccc(NC(=O)c3ccc(C(F)(F)F)cc3Br)cc2)c1OC | 22.4 | 9.25 | 16.5 | 19.6 | 28.2 | 16.2 | – | > 50
4 | COC(=O)c1scc(-c2ccc(NC(=O)c3cccc(C(F)(F)F)c3)cc2)c1OC | 26.2 | 6.13 | 12.3 | 24.6 | 32.5 | 19.3 | – | –
5 | COC(=O)c1scc(-c2ccc(NC(=O)c3ccc(C(F)(F)F)cc3)cc2)c1OC | 24.6 | 9.26 | 14.8 | 18.3 | 24.6 | 14.4 | – | 48.3
6 | COC(=O)c1scc(-c2ccc(NC(=O)c3ccccn3)cc2)c1OC | 19.2 | 24.2 | 11.3 | 8.25 | 10.3 | > 50 | – | –
7 | COC(=O)c1scc(-c2ccc(NC(=O)Cc3c(Cl)cccc3Cl)cc2)c1OC | 12.2 | 9.56 | 16.3 | 14.2 | 13.5 | – | – | –

The remaining compounds from weak to strong by IC50 [1], led by results:

Row | IC50 [1] [µM] | IC50 [2] [µM] | IC50 [3] [µM] | IC50 [4] [µM] | IC50 [5] [µM] | IC50 [6] [µM] | Stability [8] | SMILES | IC50 [7] [µM]
8 | 12.2 | 14.7 | 14.5 | 8.24 | 16.5 | 12.7 | – | COC(=O)c1scc(-c2ccc(NC(=O)c3cccc(I)c3)cc2)c1OC | 42.7
9 | 10.3 | 8.25 | 12.3 | 10.3 | 10.3 | 16.2 | – | COC(=O)c1scc(-c2ccc(NC(=O)c3ccc(F)c(Cl)n3)cc2)c1OC | –
10 | 9.54 | – | 12.5 | 28.5 | 22.5 | – | – | COC(=O)c1scc(-c2ccc(NC(=O)c3ccc(C#N)nc3)cc2)c1OC | –
11 | 5.46 | 12.6 | 11.2 | 8.36 | 9.53 | 18.3 | – | COC(=O)c1scc(-c2ccc(NC(=O)c3ncc(Cl)cc3Br)cc2)c1OC | > 50
12 | 5.25 | 18.2 | 22.3 | 15.3 | > 50 | 24.4 | – | COC(=O)c1scc(-c2ccc(NC(=O)c3ccc(OC)nc3)cc2)c1OC | > 50
13 | 2.22 | 18.2 | 6.37 | 7.54 | 0.72 | 16.6 | – | COC(=O)c1scc(-c2ccc(NC(=O)c3cccc(OC(F)(F)F)c3)cc2)c1OC | –
14 | 1.47 | 12.5 | 7.29 | 7.25 | 23.3 | 23.5 | – | COC(=O)c1scc(-c2ccc(NC(=O)c3ccc(C(F)(F)F)nc3)cc2)c1OC | –
15 | 0.41 | 0.07 | – | 0.6 | – | 0.37 | – | COc1cccc2c1C(=O)c1c(O)c3c(c(O)c1C2=O)C[C@@](O)(C(=O)CO)C[C@@H]3O[C@H]1C[C@H](N)[C@H](O)[C@H](C)O1 [DOXORUBICIN] | –
16 | 0.09 | 10.2 | 5.25 | 5.25 | 19.5 | 18.2 | Stable | COC(=O)c1scc(-c2ccc(NC(=O)c3ccc4ccccc4c3)cc2)c1OC | –
